Inconclusive results and toxic doses are left out. Rule for the calls: active = survival T/C of 150% or more; inactive = T/C below 125% in these data.
System: CD2F1 mice, L1210 leukemia ip, survival T/C
Assay: NCI In Vivo Anticancer Drug Screen. Data for tumor model L1210 Leukemia (intraperitoneal) in CD2F1 (CDF1) mice
Conditions: higher = longer survival
Outline: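 Read-out first: treated-group measurement over vehicle-control measurement, expressed as a ratio. Animals bore a transplanted tumor line and were dosed with compound or vehicle.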

[1] = endpoint: mean survival time, dose: 100.0 mg/kg/injection, schedule: Q04DX003 (ip), vehicle: saline with Tween-80
[2] = endpoint: mean survival time, dose: 200.0 mg/kg/injection, schedule: Q04DX003 (ip), vehicle: saline with Tween-80
[3] = endpoint: mean survival time, dose: 400.0 mg/kg/injection, schedule: Q04DX003 (ip), vehicle: saline with Tween-80
[4] = endpoint: mean survival time, dose: 25.0 mg/kg/injection, schedule: Q01DX009 (ip), vehicle: saline with Tween-80
[5] = endpoint: mean survival time, dose: 50.0 mg/kg/injection, schedule: Q01DX009 (ip), vehicle: saline with Tween-80
[6] = endpoint: mean survival time, dose: 100.0 mg/kg/injection, schedule: Q01DX009 (ip), vehicle: saline with Tween-80
[7] = endpoint: mean survival time, dose: 100.0 mg/kg/injection, schedule: Q01DX001 (ip), vehicle: saline
[8] = endpoint: mean survival time, dose: 200.0 mg/kg/injection, schedule: Q01DX001 (ip), vehicle: saline
[9] = endpoint: mean survival time, dose: 400.0 mg/kg/injection, schedule: Q01DX001 (ip), vehicle: saline
[10] = endpoint: mean survival time, dose: 100.0 mg/kg/injection, schedule: Q01DX001 (ip), vehicle: saline with Tween-80
[11] = endpoint: mean survival time, dose: 200.0 mg/kg/injection, schedule: Q01DX001 (ip), vehicle: saline with Tween-80

Measured: T/C

CCCCCCCC/C=C/CCCCCCCCCCCCCCBr
inactive: [1] 104 % of control | [2] 98 % of control | [3] 93 % of control

COc1ccc(C=Nc2ccc3c(c2)OCO3)cc1Br
inactive: [4] 98 % of control | [5] 97 % of control | [6] 103 % of control

CCOC(=N)CCCl
inactive: [1] 106 % of control | [2] 101 % of control | [3] 97 % of control

CN(C)CCCCO
inactive: endpoint: mean survival time, dose: 50.0 mg/kg/injection, schedule: Q01DX009 (ip), vehicle: saline 98 % of control | endpoint: mean survival time, dose: 100.0 mg/kg/injection, schedule: Q01DX009 (ip), vehicle: saline 98 % of control | endpoint: mean survival time, dose: 100.0 mg/kg/injection, schedule: Q04DX003 (ip), vehicle: saline 95 % of control | endpoint: mean survival time, dose: 200.0 mg/kg/injection, schedule: Q01DX009 (ip), vehicle: saline 97 % of control | endpoint: mean survival time, dose: 200.0 mg/kg/injection, schedule: Q04DX003 (ip), vehicle: saline 96 % of control

Cc1ccc(S(=O)(=O)NNC(=O)C2(C)CC2(C)C(=O)O)cc1 (configuration not stated)
inactive: [6] 96 % of control | endpoint: mean survival time, dose: 200.0 mg/kg/injection, schedule: Q01DX009 (ip), vehicle: saline with Tween-80 96 % of control | endpoint: mean survival time, dose: 400.0 mg/kg/injection, schedule: Q01DX009 (ip), vehicle: saline with Tween-80 100 % of control

O=c1[nH]c(=S)[nH]c(-c2ccccc2)c1Cc1c(O)ccc2ccccc12
inactive: [7] 101 % of control | [8] 100 % of control | [9] 97 % of control

Cc1ccc(S(=O)(=O)NCCC(=O)Nc2ccccc2)cc1
inactive: endpoint: mean survival time, dose: 50.0 mg/kg/injection, schedule: Q01DX009 (ip), vehicle: water 86 % of control | endpoint: mean survival time, dose: 100.0 mg/kg/injection, schedule: Q01DX009 (ip), vehicle: water 86 % of control | endpoint: mean survival time, dose: 200.0 mg/kg/injection, schedule: Q01DX009 (ip), vehicle: water 93 % of control

C1=C(c2ccccc2)NCC1c1ccccc1 (configuration not stated)
inactive: [10] 94 % of control | [11] 86 % of control | endpoint: mean survival time, dose: 400.0 mg/kg/injection, schedule: Q01DX001 (ip), vehicle: saline with Tween-80 89 % of control

O=C1C2CCCC3CCCC(C(=O)N1NC1CCCCC1)C32 (configuration not stated)
inactive: endpoint: mean survival time, dose: 12.5 mg/kg/injection, schedule: Q01DX009 (ip), vehicle: saline with Tween-80 96 % of control | [4] 89 % of control | [5] 86 % of control | [6] 88 % of control

CCC(C)C(=O)c1ccccc1 (configuration not stated)
inactive: endpoint: mean survival time, dose: 50.0 mg/kg/injection, schedule: Q01DX001 (ip), vehicle: saline with Tween-80 100 % of control | [10] 95 % of control | [11] 100 % of control

[CH3][Sn]([CH3])([Br])[CH2]CC[CH2][Sn]([CH3])([CH3])[Br]
inactive: endpoint: mean survival time, dose: 0.02 mg/kg/injection, schedule: Q01DX009 (ip), vehicle: saline 100 % of control | endpoint: mean survival time, dose: 0.04 mg/kg/injection, schedule: Q01DX009 (ip), vehicle: saline 104 % of control | endpoint: mean survival time, dose: 0.08 mg/kg/injection, schedule: Q01DX009 (ip), vehicle: saline 102 % of control | endpoint: mean survival time, dose: 6.25 mg/kg/injection, schedule: Q01DX009 (ip), vehicle: saline 110 % of control

NCCNc1ccccc1C(=O)O
inactive: endpoint: median survival time, dose: 50.0 mg/kg/injection, schedule: Q04DX002 (ip), vehicle: saline with Tween-80 111 % of control | endpoint: median survival time, dose: 100.0 mg/kg/injection, schedule: Q04DX002 (ip), vehicle: saline with Tween-80 100 % of control | endpoint: median survival time, dose: 200.0 mg/kg/injection, schedule: Q04DX002 (ip), vehicle: saline with Tween-80 100 % of control | endpoint: median survival time, dose: 400.0 mg/kg/injection, schedule: Q04DX002 (ip), vehicle: saline with Tween-80 111 % of control

CCC(=O)C(=O)c1ccccc1
inactive: [7] 101 % of control | [8] 98 % of control | [9] 101 % of control

CCOC(=O)C(Cl)c1ccc(OC)cc1 (configuration not stated)
inactive: endpoint: mean survival time, dose: 100.0 mg/kg/injection, schedule: Q04DX003 (ip), vehicle: other 96 % of control | endpoint: mean survival time, dose: 200.0 mg/kg/injection, schedule: Q04DX003 (ip), vehicle: other 97 % of control | endpoint: mean survival time, dose: 400.0 mg/kg/injection, schedule: Q04DX003 (ip), vehicle: other 96 % of control

— PubChem BioAssay AID256 (DTP/NCI, 2004)
